In US20170234881A1, “METHODS OF DIAGNOSING AND TREATING CANCER” (INSERM ( INSTITUT NATIONAL DE LA SANTÉ ET DE LA RECHERCHE …, priority 2014, published 2017):

Key:
TS/A cells [1] = test: Cell proliferation assay (BrDU incorporation), TS/A; assay type: cell-based, mouse; conditions: TS/A cells treated 24 h, concentration-dependent, level reached
Protocol: FIG. 2. OCDO is a tumor promoter in vitro and in vivo and its inhibition contributes to the anti-tumor effects of Tam and DDA. (A, B) Histograms representing the effect of OCDO or 17β-estrogen (E2) on MCF7 (A) and TS/A (B) cell proliferation after 24 h treatment using a colorimetric immunoassay measuring BrDU incorporation in DNA (C, D) Histogram representing the effect of OCDO on MCF7 (C) and TS/A (D) cell invasion. Data are the mean of three separate experiments (±[…]) Mice were implanted s.c. with MCF7 (E) or TS/A (F) cells and animals (8 per group) were treated s.c. every day starting on the day of implantation with either the solvent vehicle or OCDO (16 μg/kg for MCF7 or 50 μg/kg for TS/A). Animals were monitored for tumour growth twice a week. The data are representative of three independent experiments. The mean tumor volume±s.e.m is shown, *P<0.05, **P<0.01, ***P<0.001 (analysis of variance (ANOVA), Dunnett's post test). […] (I, J, K). Murine […], or human MDA-MB231 (J) or MDA-MB468 (K) cells implanted s.c. into mice (8 per group) and animals were treated s.c. with either the solvent vehicle or OCDO (16 μg/kg for MDA-MB-231 and MDA-MB-468 or 50 μg/kg for E0771). […] At the end of this time, cells were incubated with BrDU for an additional 8 h and then evaluated for proliferation using the ELISA kit, Roche Diagnostic, as indicated by the manufacturer.

TS/A cells [2] = test: Cell invasion assay (matrigel-coated filters), TS/A; assay type: cell-based, mouse; conditions: concentration-dependent, level reached
Protocol: (§1) FIG. 2. OCDO is a tumor promoter in vitro and in vivo and its inhibition contributes to the anti-tumor effects of Tam and DDA. (A, B) Histograms representing the effect of OCDO or 17β-estrogen (E2) on MCF7 (A) and TS/A (B) cell proliferation after 24 h treatment using a colorimetric immunoassay measuring BrDU incorporation in DNA (C, D) Histogram representing the effect of OCDO on MCF7 (C) and TS/A (D) cell invasion. Data are the mean of three separate experiments (±s.e.m), *P<0.05, **P<0.01, ***P<0.001 (Student's t-test). (E, F) Mice were implanted s.c. with MCF7 (E) or TS/A (F) cells and animals (8 per group) were treated s.c. every day starting on the day of implantation with either the solvent vehicle or OCDO (16 μg/kg for MCF7 or 50 μg/kg for TS/A). Animals were monitored for tumour growth twice a week. The data are representative of three independent experiments. The mean tumor volume±s.e.m is shown, *P<0.05, **P<0.01, ***P<0.001 (analysis of variance (ANOVA), Dunnett's post test). (G) Mean (±s.e.m) of Ki67 positive cell number determined from IHC staining of MCF7 tumor sections from (E), n=8, *P<0.05 (Student's t-test) using HistoQuant, Pannoramic Viewer (3DHistech). […]
Invasion assays were carried out using Bio-Coat migration chambers (BD Falcon) with 8 μm filters previously coated with matrigel. […] The entire membranes were mounted on glass slides, and were counted under a microscope. […]

MDA-MB468 cells = test: Growth of MDA-MB468 tumors implanted s.c. into mice; assay type: in vivo; conditions: human MDA-MB468 tumors, OCDO 16 μg/kg s.c.
Protocol: as §1, with “The data are representative of three independent experiments. The mean tumor volume±s.e.m is shown, *P<0.05, **P<0.01, ***P<0.001 (analysis of variance (ANOVA), Dunnett's post test).” left out
Exponentially growing MCF7, ShMCF7, E0771, MDA-MB231, MDA-MB468 and TS/A cells were collected, washed twice in PBS and resuspended in PBS. […] Animals were examined daily, and body weights were measured twice per week. In all the experiments, the tumor volume was determined by direct measurement with a caliper and was calculated using the formula (width^2×length)/2. […]

CC(C)CCC[C@@H](C)[C@H]1CC[C@H]2[C@@H]3CC(=O)[C@@]4(O)C[C@@H](O)CC[C@]4(C)[C@H]3CC[C@]12C [OCDO, 6-oxo-cholestan-3β,5α-diol]
growth rate (cell proliferation) relative to the control (TS/A cells [1]): 1.7 fold
invasiveness compared with the control (TS/A cells [2]): 2.3 fold
tumor growth (MDA-MB468 cells): stimulates the growth
